20 compounds from patent US20060257543A1, “Molecules comprising linked organic moieties as flavor modifiers for comestible compositions” (priority 2005, published 2006) can be followed below.

Experiment [1] has as its target T1, hT1R1/hT1R3 umami receptor expressed in an HEK293 cell line (Homo sapiens, UniProt Q7RTX0+Q7RTX1).
T1 construct: expressed in transfected cells; host or cells: HEK293 derivative, clone I-17, expression induced with mifepristone
T1 sequence (Q7RTX1 21-841): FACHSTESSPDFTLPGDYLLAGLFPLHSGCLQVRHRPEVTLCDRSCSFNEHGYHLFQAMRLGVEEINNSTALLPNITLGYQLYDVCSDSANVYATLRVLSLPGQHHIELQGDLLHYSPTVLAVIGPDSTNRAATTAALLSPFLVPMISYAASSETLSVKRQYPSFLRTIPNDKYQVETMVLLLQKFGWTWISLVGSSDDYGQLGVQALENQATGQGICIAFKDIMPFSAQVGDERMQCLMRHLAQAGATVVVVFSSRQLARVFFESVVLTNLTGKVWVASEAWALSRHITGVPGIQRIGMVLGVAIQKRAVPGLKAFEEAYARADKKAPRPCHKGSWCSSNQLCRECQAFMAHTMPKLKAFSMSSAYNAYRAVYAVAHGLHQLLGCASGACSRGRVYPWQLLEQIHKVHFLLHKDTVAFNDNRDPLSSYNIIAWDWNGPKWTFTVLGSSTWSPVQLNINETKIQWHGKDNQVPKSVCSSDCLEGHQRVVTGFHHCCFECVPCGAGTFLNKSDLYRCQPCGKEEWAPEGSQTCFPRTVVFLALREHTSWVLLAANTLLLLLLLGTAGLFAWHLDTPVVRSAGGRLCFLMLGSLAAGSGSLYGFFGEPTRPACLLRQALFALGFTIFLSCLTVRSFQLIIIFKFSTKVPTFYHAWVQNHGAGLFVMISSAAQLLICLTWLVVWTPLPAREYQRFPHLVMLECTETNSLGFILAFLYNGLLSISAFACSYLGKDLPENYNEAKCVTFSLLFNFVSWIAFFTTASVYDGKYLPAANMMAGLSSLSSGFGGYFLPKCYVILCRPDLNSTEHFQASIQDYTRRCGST
T1 sequence (Q7RTX0 21-852): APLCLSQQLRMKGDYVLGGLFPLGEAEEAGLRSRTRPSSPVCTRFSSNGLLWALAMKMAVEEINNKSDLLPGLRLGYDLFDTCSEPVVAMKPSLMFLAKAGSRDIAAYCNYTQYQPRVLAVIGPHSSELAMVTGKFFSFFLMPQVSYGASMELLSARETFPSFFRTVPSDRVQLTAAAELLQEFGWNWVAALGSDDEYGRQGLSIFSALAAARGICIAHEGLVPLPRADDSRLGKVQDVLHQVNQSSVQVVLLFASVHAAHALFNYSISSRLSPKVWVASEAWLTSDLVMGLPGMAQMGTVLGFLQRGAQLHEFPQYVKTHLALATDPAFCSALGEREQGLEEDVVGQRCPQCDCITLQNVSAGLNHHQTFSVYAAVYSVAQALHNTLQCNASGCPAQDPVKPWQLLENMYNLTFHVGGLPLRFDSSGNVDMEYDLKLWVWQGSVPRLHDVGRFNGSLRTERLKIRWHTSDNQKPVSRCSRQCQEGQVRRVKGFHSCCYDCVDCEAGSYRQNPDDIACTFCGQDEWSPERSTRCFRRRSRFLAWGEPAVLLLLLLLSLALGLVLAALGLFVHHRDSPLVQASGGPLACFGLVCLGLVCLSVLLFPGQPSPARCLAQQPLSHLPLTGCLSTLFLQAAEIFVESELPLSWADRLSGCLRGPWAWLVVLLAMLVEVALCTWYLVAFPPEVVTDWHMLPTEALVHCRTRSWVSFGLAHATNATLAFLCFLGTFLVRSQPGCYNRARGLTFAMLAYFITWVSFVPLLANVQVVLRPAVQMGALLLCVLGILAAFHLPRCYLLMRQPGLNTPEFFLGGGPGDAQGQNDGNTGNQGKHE
The experiment in a line: In vitro hT1R1/hT1R3 umami taste receptor activation assay (FLIPR, dose response). The class given is cell-based. An excerpt:
In order to identify new savory flavoring agents and enhancers, including compounds with savory agonist and enhancer activities (dual activity), the tastant compounds of Formula (I) were screened in primary assays and secondary assays including compound dose response and enhancement assay. In a primary assay for potential ability to modulate umami taste, tastant compounds of Formula (I) that can be either savory flavoring agents in their own right or flavor enhancers of MSG are identified and scores of their activities are given as percentage of the maximum MSG intensity (%). In compound dose response, an EC50 is calculated to reflect the potency of the compound as a savory agonist or enhancer.
An HEK293 cell line derivative (see e.g., Chandrashekar, et al., Cell (2000) 100: 703-711) which stably expresses Gα15 and hT1R1/hT1R3 under an inducible promoter (see WO 03/001876 A2) was used to identify compounds with savory tasting properties.
Compounds disclosed in this application were initially selected based on their activity on the hT1R1/hT1R3-HEK293-Gα15 cell line. Activity was determined using an automated fluorometric imaging assay on a FLIPR instrument (Fluorometric Intensity Plate Reader, Molecular Devices, Sunnyvale, Calif.) (designated FLIPR assay). Cells from one clone (designated clone I-17) were seeded into 384-well plates (at approximately 48,000 cells per well) in a medium containing Dulbecco's modified Eagle's medium (DMEM) supplemented with GlutaMAX (Invitrogen, Carlsbad, Calif.), 10% dialyzed fetal bovine serum (Invitrogen, Carlsbad, Calif.), 100 Units/ml Penicillin G, 100 μg/ml Streptomycin (Invitrogen, Carlsbad, Calif.) and 60 pM mifepristone (to induce expression of hT1R1/hT1R3, (see WO 03/001876 A2). I-17 cells were grown for 48 hours at 37° C. I-17 cells were then loaded with the calcium dye Fluo-3AM (Molecular Probes, Eugene, Oreg.), 4 μM in a phosphate buffered saline (D-PBS) (Invitrogen, Carlsbad, Calif.), for 1.5 hours at room temperature. After replacement with 25 μl D-PBS, stimulation was performed in the FLIPR instrument and at room temperature by the addition of 25 μl D-PBS supplemented with different stimuli at concentrations corresponding to twice the desired final level. Receptor activity was quantified by determining the maximal fluorescence increases (using a 480 nm excitation and 535 nm emission) after normalization to basal fluorescence intensity measured before stimulation.
For dose-responses analysis, stimuli were presented in duplicates at 10 different concentrations ranging from 1.5 nM to 30 μM. Activities were normalized to the response obtained with 60 mM monosodium glutamate, a concentration that elicits maximum receptor response. EC50s (concentration of compound that causes 50% activation of receptor) were determined using a non-linear regression algorithm, where the Hill slope, bottom asymptotes and top asymptotes were allow to vary. Identical results were obtained when analyzing the dose-response data using commercially available software for non-linear regression analysis such as GraphPad PRISM (San Diego, Calif.).

Experiment [2] concerns the target T1, hT1R1/hT1R3 umami receptor expressed in an HEK293 cell line. Nature of the experiment: Umami taste enhancement activity assay (EC50 ratio vs. MSG). The class given is cell-based. An excerpt:
In umami taste enhancement activity assay experiments, which produce an “EC50 ratio” measurement of how effectively the tastant compounds of the invention enhance the savory flavorant (typically MSG) already in a test solution. A series of measurements of the dose response is run in solutions comprising MSG alone, then a second dose response is run with MSG in combination with predetermined amounts of a candidate compound of Formula (I) at the same time.
In this assay, increasing concentrations of monosodium glutamate (ranging from 12 μM to 81 mM) were presented, in duplicates, in the presence or absence of a fixed concentration of the test compound. Typical compound concentrations tested were 30 μM, 10 μM, 3 μM, 1 μM, 0.3 μM, 0.1 μM and 0.03 μM. The relative efficacy of compounds of Formula (I) at enhancing the receptor was determined by calculating the magnitude of a shift in the EC50 for monosodium glutamate. Enhancement was defined as a ratio (EC50R) corresponding to the EC50 of monosodium glutamate, determined in the absence of the test compound, divided by the EC50 of monosodium glutamate, determined in the presence of the test compound.
Stated alternatively, “EC50 ratio” as compared to MSG is calculated based on the following definitions:
EC50 Ratio vs. MSG=EC50 (MSG)/EC50 (MSG+[Compound]) • wherein “[compound]” refers to the concentration of the compound of Formula (I) used to elicit (or enhance or potentiate) the MSG dose response.
It should be noted that the EC50 ratio measured can depend somewhat on the concentration of the compound itself. Preferred savory enhancers would have a high EC50 Ratio vs. MSG at a low concentration of the compound used. Preferably the EC50 ratio experiments to measure umami enhancement are run at a concentration of a compound of Formula (I) between about 10 μM to about 0.1 μM, or preferably at […] or 3.0 μM.

Setting [3] is: read-out: EC50 for activation of a hT1R1/hT1R3 umami receptor expressed in an HEK293 cell line.

Each structure is given as a SMILES string. Where two headings read alike, the source gives them in different places.

As for `S=C(NCCc1ccccn1)Nc1cccc(Cl)c1` [Example A17], the EC50 in experiment [1] (read-out: Umami EC50) stood at 4.53 µM. Besides, the “EC50 ratio (vs. MSG)” value in experiment [2] (compound @ 1 μM) came to 4.7. Consider `O=C(OCc1ccccn1)c1ccc(COc2cccc3ccccc23)cc1` [Example A22], for which the EC50 in experiment [1] (read-out: Umami EC50) turned out to be 3.87 µM.

`c1ccc2sc(SCc3cn4ccsc4n3)nc2c1` [Example A13]: in experiment [1] (read-out: Umami EC50), the EC50 turned out to be 5.19 µM. The “EC50 ratio (vs. MSG)” value in experiment [2] (compound @ 3 μM) is listed as 3.6. Take `CC(C)(C)c1ccc(NC(=S)NCc2ccccn2)cc1` [Example A16]: the EC50 in experiment [1] (read-out: Umami EC50) was 3.71 µM. On the same count and under the same terms, the result for `O=S(=O)(NCc1cc(F)cc2c1OCOC2)c1ccc(-c2ccccn2)s1` [Example A23] reads 10.3 µM; that for `CC(C)c1ccc(NC(=S)NCCc2ccccn2)cc1` [Example A2], 1.43 µM. Still for that read-out and setting: the result for `CCOC(=O)COc1ccc(S(=O)(=O)Nc2ccc3c(c2)OCO3)cc1` [Example A14] reads 14.4 µM.

As to `COc1ccc(CNc2ccccn2)cc1` [Example A8], in experiment [1] (read-out: Umami EC50), the EC50 amounted to 11.8 µM. In experiment [2] (compound @ 1 μM), the “EC50 ratio (vs. MSG)” value is 3.1. Consider `S=C(NCCc1ccccn1)Nc1ccccc1OCc1ccccc1` [Example A1], for which the EC50 in experiment [1] (read-out: Umami EC50) came to 1.31 µM.

Take `CCOc1ccc(NC(=S)NCCc2ccccn2)cc1` [Example 2]: the EC50 in experiment [1] (setting [3]) stood at 0.55 µM. As to `O=C(SCc1ccccn1)c1ccccc1` [Example A11], the EC50 in experiment [1] (read-out: Umami EC50) stood at 6.34 µM. Besides, in experiment [2] (compound @ 3 μM), the “EC50 ratio (vs. MSG)” value came out at 6.5. For `COc1ccc(CNc2nc3ccccn3n2)cc1` [Example A9], in that order: 11.8 µM and 3.6. With `CC(C)Oc1ccc(NC(=S)NCc2ncc[nH]2)cc1` [Example A21], the EC50 in experiment [1] (read-out: Umami EC50) came out at 14.5 µM. On the same count and under the same terms, the result for `CCc1ccc(NC(=S)NCCc2ccccn2)cc1` [Example A4] reads 1.37 µM.

With `c1ccc2oc(SCc3cn4ccccc4n3)nc2c1` [Example A12], the EC50 in experiment [1] (read-out: Umami EC50) came to 5.14 µM. Also, the “EC50 ratio (vs. MSG)” value in experiment [2] (compound @ 1 μM) is 2.81.

In the case of `O=C(OCCCc1nc2ccccc2[nH]1)c1cccs1` [Example A6], the EC50 in experiment [1] (read-out: Umami EC50) came to 3.5 µM. Besides, in experiment [2] (compound @ 3 μM), the “EC50 ratio (vs. MSG)” value was determined as 4.4.

Regarding `O=C(OCCCn1ncc2ccccc2c1=O)c1cccs1` [Example A7], the EC50 in experiment [1] (read-out: Umami EC50) came out at 6 µM. Besides, the “EC50 ratio (vs. MSG)” value in experiment [2] (compound @ 3 μM) came to 3.8.

For the compound `CCCC(CCC)NC(=S)c1ccc2c(c1)OCO2` [Example 1, N-(heptan-4-yl)benzo[d][1,3]dioxole-5-carbothioamide], the EC50 in experiment [1] (setting [3]) was determined as 8.8 µM. Moreover, the “EC50 ratio (enhanced the effectiveness of monosodium glutamate)” value in experiment [2] (compound present at 0.03 μM) is reported as 3. `CSc1ccc(NC(=S)NCCc2ccccn2)cc1` [Example A5]: in experiment [1] (read-out: Umami EC50), the EC50 was 3.26 µM.

For `CCCCC(C)NC(=S)NC1CCCc2ccccc21` (centres unmarked) [Example A18], the EC50 in experiment [1] (read-out: Umami EC50) worked out at 7.88 µM.
